Legend:
[1] = target: T1, human DP2 receptor (Homo sapiens, UniProt Q9Y5Y4); test: Measurement of inhibition of intracellular cAMP induction (LANCE cAMP TR-FRET); type: cell-based; details: human DP2 cells
T1 construct: expressed in transfected cells; host or cells: CHO-K1 FLP-In (Invitrogen, catalog no. R758-07), stably transfected
T1 sequence (Q9Y5Y4 1-395): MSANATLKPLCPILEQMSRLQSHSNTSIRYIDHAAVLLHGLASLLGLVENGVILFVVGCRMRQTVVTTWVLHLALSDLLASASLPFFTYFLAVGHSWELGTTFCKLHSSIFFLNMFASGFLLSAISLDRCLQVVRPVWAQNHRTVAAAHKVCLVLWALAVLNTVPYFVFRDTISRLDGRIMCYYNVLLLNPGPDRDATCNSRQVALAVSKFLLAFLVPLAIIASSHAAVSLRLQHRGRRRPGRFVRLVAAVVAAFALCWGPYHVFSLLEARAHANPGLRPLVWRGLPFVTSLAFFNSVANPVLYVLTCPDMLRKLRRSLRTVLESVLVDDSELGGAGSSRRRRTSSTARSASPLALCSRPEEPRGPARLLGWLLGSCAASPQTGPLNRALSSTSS
Procedure: The ability of compounds to act as antagonists or agonists at the human DP2 receptor was determined by measuring changes in intracellular cAMP levels using a LANCE cAMP detection kit (PerkinElmer, catalog no. AD0264) utilizing time-resolved fluorescence resonance energy transfer (TR-FRET).
Human DP2 cells were grown as described above. Cells were diluted to 2×10^5 cells/mL, and pre-incubated with 0.5 mM […] or IBMX (Sigma, catalog no. I7018). Antibody was added to all the cells as per the manufacturer's instructions. For antagonist experiments, cells were then pre-stimulated for 15 minutes with 4 μM of the water soluble forskolin derivative NKH-477 (Tocris, catalog no. 1603) to increase intracellular cAMP levels. An aliquot of cells was removed for use in uninduced controls. […] After a three hour equilibration, plates were read on an Envision multi-mode detector (PerkinElmer). TR-FRET was measured using a 330-380 nm excitation filter, 615 and 665 nm emission filters, and a 380 nm dichroic mirror set at a Z-height of 11 mm.
The cAMP concentration in each well was back-calculated from a cAMP standard curve run concurrently with each assay. Cyclic AMP responses were expressed as a percent of the difference between the maximum and minimum responses, determined from the induced and uninduced controls, respectively. […]

[2] = target: T1, human DP2 receptor; test: Prostaglandin D2 binding inhibition assay (scintillation proximity assay, 3H PGD2, membranes of transfected CHO cells); details: SPA, 5.5 nM 3H PGD2, CHO-K1 FLP-In human DP2 membranes; upper limit determinable 30 μM; read-out: IC50 ranges for inhibition of PGD2 binding to human DP2
How it was run: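 Membranes (5 μg) from CHO-K1 cells stably expressing human DP2 were mixed with WGA SPA beads and 5.5 nM 3H PGD2 in Tris buffer with 10 mM MgCl2, 100 mM NaCl, 0.1% BSA, plus compound. After 60 min at room temperature, CPM were read; IC50 from two-parameter nonlinear regression.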

Row | Structure (SMILES) | EC50 ([1]; 4 μM NKH-477 pre-stimulation, 30 nM PGD2, read-out: EC50, antagonism of intracellular cAMP induction) [µM] | mode of action at human DP2 (antagonist or agonist) ([1]; intracellular cAMP) | IC50 [2] [µM]
1 | CS(=O)(=O)c1ccccc1S(=O)(=O)N1CCC(n2c(=O)n(CC(=O)O)c3cccnc32)CC1 [Compound 63, 2-(3-(1-(2-(methylsulfonyl)phenyl-sulfonyl)piperidin-4-yl)-2-oxo-2,3-dihydro-1H-imidazo[4,5-b]pyridin-1-yl)acetic acid] | < 1 | antagonist | < 1
2 | CS(=O)(=O)c1ccccc1S(=O)(=O)N1CCC(n2c(=O)n(CC(=O)O)c3cnccc32)CC1 [Compound 143, 2-(1-(1-(2-(methylsulfonyl)phenylsulfonyl)piperidin-4-yl)-2-oxo-1H-imidazo[4,5-c]pyridin-3(2H)-yl)acetic acid] | – | – | > 30
3 | Cc1cc(F)ccc1S(=O)(=O)N1CCC(n2c(=O)n(CC(=O)O)c3cnccc32)CC1 [Compound 144, 2-(1-(1-(4-fluoro-2-methylphenylsulfonyl)piperidin-4-yl)-2-oxo-1H-imidazo[4,5-c]pyridin-3(2H)-yl)acetic acid] | – | – | > 30
4 | CS(=O)(=O)c1ccccc1S(=O)(=O)N1CCC(n2c(=O)n(CC(=O)O)c3ccncc32)CC1 [Compound 149, 2-(3-(1-(2-(methylsulfonyl)phenylsulfonyl)piperidin-4-yl)-2-oxo-2,3-dihydro-1H-imidazo[4,5-c]pyridin-1-yl)acetic acid] | – | – | 1 to 10
5 | O=C(O)Cn1c(=O)n(C2CCN(S(=O)(=O)c3ccc(F)cc3Cl)CC2)c2cnccc21 [Compound 150, 2-(3-(1-(2-chloro-4-fluorophenylsulfonyl)piperidin-4-yl)-2-oxo-2,3-dihydro-1H-imidazo[4,5-c]pyridin-1-yl)acetic acid] | – | – | > 30

Other lines, results leading:

Row | EC50 ([1]; 4 μM NKH-477 pre-stimulation, 30 nM PGD2, read-out: EC50, antagonism of intracellular cAMP induction) [µM] | mode of action at human DP2 (antagonist or agonist) ([1]; intracellular cAMP) | IC50 [2] [µM] | Structure (SMILES)
6 | – | – | > 30 | O=C(O)Cn1c(=O)n(C2CCN(S(=O)(=O)c3ccccc3Cl)CC2)c2ccncc21 [Compound 141, 2-(1-(1-(2-chlorophenylsulfonyl)piperidin-4-yl)-2-oxo-1H-imidazo[4,5-c]pyridin-3(2H)-yl)acetic acid]
7 | – | – | > 30 | O=C(O)Cn1c(=O)n(C2CCN(S(=O)(=O)c3ccc(Cl)cc3Cl)CC2)c2ccncc21 [Compound 142, 2-(1-(1-(2,4-dichlorophenylsulfonyl)piperidin-4-yl)-2-oxo-1H-imidazo[4,5-c]pyridin-3(2H)-yl)acetic acid]

— patent US20110190336A1, “AZABENZIMIDAZOLONES” (CARA THERAPEUTICS, INC., priority 2008, published 2011)
